target: T1, hTLR9 (Homo sapiens, UniProt Q9NR96); assay: HEK293-Blue-hTLR-9 cells assay (SEAP reporter, ODN2006 stimulation); assay type: cell-based; parameters: host or cells: HEK293 (HEK-Blue hTLR9); conditions: HEK293-Blue-hTLR9 cells, ODN2006, 20 hrs; read-out: HEK/hTLR9 IC50
T1 sequence (Q9NR96 26-1032): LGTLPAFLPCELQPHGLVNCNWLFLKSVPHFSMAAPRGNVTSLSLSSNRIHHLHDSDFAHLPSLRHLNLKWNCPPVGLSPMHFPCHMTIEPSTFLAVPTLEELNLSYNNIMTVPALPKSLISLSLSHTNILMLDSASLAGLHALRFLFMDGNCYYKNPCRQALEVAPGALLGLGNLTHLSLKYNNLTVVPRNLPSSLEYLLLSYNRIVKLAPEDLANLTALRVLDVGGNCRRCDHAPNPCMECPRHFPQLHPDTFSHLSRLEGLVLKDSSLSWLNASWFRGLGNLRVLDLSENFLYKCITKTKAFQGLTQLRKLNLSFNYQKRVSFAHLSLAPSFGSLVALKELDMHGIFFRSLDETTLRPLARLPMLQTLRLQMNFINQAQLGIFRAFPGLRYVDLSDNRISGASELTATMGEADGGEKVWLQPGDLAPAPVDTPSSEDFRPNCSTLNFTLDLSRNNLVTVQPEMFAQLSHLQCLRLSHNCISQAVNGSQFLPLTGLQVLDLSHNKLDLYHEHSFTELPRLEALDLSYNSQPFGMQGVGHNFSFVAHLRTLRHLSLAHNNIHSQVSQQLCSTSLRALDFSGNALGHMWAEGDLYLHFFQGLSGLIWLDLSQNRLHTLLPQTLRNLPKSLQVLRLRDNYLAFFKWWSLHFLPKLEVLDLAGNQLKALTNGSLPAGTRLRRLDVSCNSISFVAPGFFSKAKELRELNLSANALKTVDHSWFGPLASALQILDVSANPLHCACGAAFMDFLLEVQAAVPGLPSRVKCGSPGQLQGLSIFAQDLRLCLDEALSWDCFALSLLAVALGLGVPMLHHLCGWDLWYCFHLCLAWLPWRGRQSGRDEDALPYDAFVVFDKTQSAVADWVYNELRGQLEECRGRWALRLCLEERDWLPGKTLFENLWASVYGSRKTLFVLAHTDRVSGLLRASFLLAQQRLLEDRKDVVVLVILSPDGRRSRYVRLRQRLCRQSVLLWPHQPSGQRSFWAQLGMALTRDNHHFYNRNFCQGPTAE
Outline: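 HEK293-Blue-hTLR9 cells with NF-κB/AP-1-driven SEAP reporter treated with serially diluted compound (1% DMSO final) plus ODN2006 for 20 h at 37 °C. Supernatant SEAP measured with QUANTI-Blue, 2 h at 37 °C, absorbance 620–655 nm; antagonism seen as reduced reporter signal.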

Row | Structure (SMILES) | IC50 [nM]
1 | C[C@@H]1CN(c2ccc(C#N)n3ncc(F)c23)C[C@H](CN2CCN(c3ccc(N4CC5(CN(C)C5)C4)nc3)CC2)O1 [Example 170, 3-fluoro-4-[(2R,6S)-2-methyl-6-[[4-[6-(6-methyl-2,6-diazaspiro[3.3]heptan-2-yl)-3-pyridyl]piperazin-1-yl]methyl]morpholin-4-yl]pyrazolo[1,5-a]pyridine-7-carbonitrile] | 70
2 | C[C@@H]1CN(c2cc(=O)n(C)c3ncccc23)C[C@H](CN2CC(c3ccc(N4CCNCC4)cc3)C2)O1 [Example 171, 1-methyl-4-[(2R,6S)-2-methyl-6-[[3-(4-piperazin-1-ylphenyl)azetidin-1-yl]methyl]morpholin-4-yl]-1,8-naphthyridin-2-one] | 35
3 | C[C@@H]1CN(c2cc(=O)n(C)c3ncccc23)C[C@H](CN2CC(c3ccc(N4CC5(CNCCO5)C4)cc3)C2)O1 [Example 173, 1-methyl-4-[(2R,6S)-2-methyl-6-[[3-[4-(5-oxa-2,8-diazaspiro[3.5]nonan-2-yl)phenyl]azetidin-1-yl]methyl]morpholin-4-yl]-1,8-naphthyridin-2-one] | 60
4 | C[C@@H]1CN(c2ccc(C#N)n3ncc(F)c23)C[C@H](CN2CCN(c3ccc(N4CC[C@@H](N)[C@H](F)C4)nc3)CC2)O1 [Example 175, 4-[(2S,6R)-2-[[4-[6-[(3R,4R)-4-amino-3-fluoro-1-piperidyl]-3-pyridyl]piperazin-1-yl]methyl]-6-methyl-morpholin-4-yl]-3-fluoro-pyrazolo[1,5-a]pyridine-7-carbonitrile] | 66
5 | C[C@@H]1CN(c2cc(=O)n(C)c3ncccc23)C[C@H](CN2CC(c3ccc(N4CC(C)(N)C4)cc3)C2)O1 [Example 176, 4-[(2S,6R)-2-[[3-[4-(3-amino-3-methyl-azetidin-1-yl)phenyl]azetidin-1-yl]methyl]-6-methyl-morpholin-4-yl]-1-methyl-1,8-naphthyridin-2-one] | 101
6 | C[C@@H]1CN(c2ccc(C#N)n3ncc(F)c23)C[C@H](CN2CCN(c3ccc([C@@H]4CNCCO4)cc3)CC2)O1 [Example 177, 3-fluoro-4-[(2R,6S)-2-methyl-6-[[4-[4-[(2R)-morpholin-2-yl]phenyl]piperazin-1-yl]methyl]morpholin-4-yl]pyrazolo[1,5-a]pyridine-7-carbonitrile] | 98
7 | C[C@@H]1CN(c2ccc(C#N)n3ncc(F)c23)C[C@H](CN2CCN(c3ccc(N4CCOC5(CNC5)C4)nc3)CC2)O1 [Example 178, 3-fluoro-4-[(2R,6S)-2-methyl-6-[[4-[6-(5-oxa-2,8-diazaspiro[3.5]nonan-8-yl)-3-pyridyl]piperazin-1-yl]methyl]morpholin-4-yl]pyrazolo[1,5-a]pyridine-7-carbonitrile] | 116
8 | C[C@@H]1CN(c2ccc(C#N)n3ncc(F)c23)C[C@H](CN2CCN(c3ccc(N4CC5(CCN5)C4)nc3)CC2)O1 [Example 179, 4-[(2S,6R)-2-[[4-[6-(1,6-diazaspiro[3.3]heptan-6-yl)-3-pyridyl]piperazin-1-yl]methyl]-6-methyl-morpholin-4-yl]-3-fluoro-pyrazolo[1,5-a]pyridine-7-carbonitrile] | 157
9 | C[C@@H]1CN(c2cc(=O)n(C)c3ncccc23)C[C@H](CN2CC(c3ccc(N4CC5(CN(C)C5)C4)cc3)C2)O1 [Example 180, 1-methyl-4-[(2R,6S)-2-methyl-6-[[3-[4-(6-methyl-2,6-diazaspiro[3.3]heptan-2-yl)phenyl]azetidin-1-yl]methyl]morpholin-4-yl]-1,8-naphthyridin-2-one] | 41
10 | C[C@@H]1CN(c2cc(=O)n(C)c3ncccc23)C[C@H](CN2CC(c3ccc(N4C[C@H]5NCCO[C@@H]5C4)cc3)C2)O1 [Example 182, 4-[(2S,6R)-2-[[3-[4-[(4aR,7aR)-3,4,4a,5,7,7a-hexahydro-2H-pyrrolo[3,4-b][1,4]oxazin-6-yl]phenyl]azetidin-1-yl]methyl]-6-methyl-morpholin-4-yl]-1-methyl-1,8-naphthyridin-2-one] | 39
11 | C[C@@H]1CN(c2ccc(C#N)n3ncc(F)c23)C[C@H](CN2CCN(c3ccc([C@@H]4CNCCO4)c(F)c3)CC2)O1 [Example 184, 3-fluoro-4-[(2S,6R)-2-[[4-[3-fluoro-4-[(2R)-morpholin-2-yl]phenyl]piperazin-1-yl]methyl]-6-methyl-morpholin-4-yl]pyrazolo[1,5-a]pyridine-7-carbonitrile] | 124
12 | C[C@@H]1CN(c2ccc(C#N)n3ncc(F)c23)C[C@H](CN2CCN(c3ccc(C4(C)CNCCO4)cc3)CC2)O1 (stereo partly drawn) [Example 185, 3-fluoro-4-[(2R,6S)-2-methyl-6-[[4-[4-(2-methylmorpholin-2-yl)phenyl]piperazin-1-yl]methyl]morpholin-4-yl]pyrazolo[1,5-a]pyridine-7-carbonitrile] | 186
13 | C[C@@H]1CN(c2ccc(C#N)n3ncc(F)c23)C[C@H](CN2CCN(c3ccc(C[C@@H]4CNCCO4)cc3)CC2)O1 [Example 186, 3-fluoro-4-[(2R,6S)-2-methyl-6-[[4-[4-[[(2R)-morpholin-2-yl]methyl]phenyl]piperazin-1-yl]methyl]morpholin-4-yl]pyrazolo[1,5-a]pyridine-7-carbonitrile] | 124

From patent publication US20210395239A1 (Hoffmann-La Roche Inc., priority 2018, published 2021)
